Reference: the NIST ThermoML archive (doi:10.1021/je3010535)
Values joined by “and” are separate entries in the source; they are usually repeats but may differ in a detail not shown here. Identical values can stand only once. Numbers after ± are expanded uncertainties.

Experiment: Henry's Law constant (molality scale); of the first substance listed, at infinite dilution; mn = molality of the nth substance listed, in mol/kg
Settings: Liquid, Chromatography, m1 = 0

SMILES | Henry's Law constant (274.15 K) [kPa·kg/mol] | Henry's Law constant (294.65 K) | Henry's Law constant (296.15 K) [kPa·kg/mol] | Henry's Law constant (310.15 K) [kPa·kg/mol] | Henry's Law constant (313.15 K) [kPa·kg/mol] | Henry's Law constant (326.15 K) [kPa·kg/mol] | Henry's Law constant (331.15 K) [kPa·kg/mol] | Henry's Law constant (320.15 K) [kPa·kg/mol]
CC(C)(C)c1ccccc1 [(1,1-dimethylethyl)benzene] + O | 189 ± 75 | 448 kPa·kg/mol and 554 kPa·kg/mol | 562 ± 220 | 1020 ± 410 | 2070 ± 830 | 3330 ± 1300 | 2160 ± 860 | 
CCC(C)c1ccccc1 (configuration not stated) [(1-methylpropyl)benzene] + O | 251 |  | 634 | 1100 | 2690 | 4160 | 2310 | 
Cl/C=C/CCl [(E)-1,3-dichloro-1-propene] + O | 52.9 ± 16 | 144 kPa·kg/mol | 153 ± 46 | 300 ± 90 |  |  | 929 ± 280 | 
Cl/C=C\CCl [(Z)-1,3-dichloro-1-propene] + O | 25.3 ± 7.6 | 87.5 kPa·kg/mol and 89.1 kPa·kg/mol | 94.4 ± 28 | 202 ± 61 |  |  | 657 ± 200 | 386 ± 120
c1ccccc1 [benzene] + O | 193 ± 58 | 480 kPa·kg/mol and 474 kPa·kg/mol | 528 ± 160 | 1190 ± 360 | 832 ± 250 | 1410 ± 420 | 2240 ± 670 | 
Clc1ccccc1 [chlorobenzene] + O | 83.7 ± 25 | 246 kPa·kg/mol and 238 kPa·kg/mol | 270 ± 81 | 423 ± 130 | 532 ± 160 | 1050 ± 310 | 1180 ± 350 | 
ClC(Br)Br [chlorodibromomethane] + O | 22.7 ± 6.8 | 80.5 kPa·kg/mol and 82.2 kPa·kg/mol | 85.7 ± 26 | 179 ± 54 |  |  | 536 ± 160 | 327 ± 98
CCc1ccccc1 [ethylbenzene] + O | 162 |  | 533 |  | 1290 | 2320 | 1830 | 
CC(C)c1ccccc1 [isopropylbenzene] + O | 212 ± 64 | 536 kPa·kg/mol and 588 kPa·kg/mol | 622 ± 190 | 1380 ± 410 | 1960 ± 590 | 3260 ± 980 | 3130 ± 940 | 
CC1CCCCC1 [methylcyclohexane] + O | 1060 ± 320 | 2350 kPa·kg/mol and 2300 kPa·kg/mol | 2010 ± 600 |  | 9440 ± 2800 | 15600 ± 4700 |  | 
C=Cc1ccccc1 [styrene] + O | 62.4 ± 19 | 196 kPa·kg/mol | 224 ± 67 | 382 ± 110 | 507 ± 150 | 925 ± 280 | 972 ± 290 | 
ClC(Cl)=C(Cl)Cl [tetrachloroethene] + O | 320 ± 130 | 755 kPa·kg/mol and 879 kPa·kg/mol | 813 ± 330 | 2470 ± 990 | 2240 ± 900 | 2750 ± 1100 | 5600 ± 2200 | 
Cc1ccccc1 [toluene] + O | 164 ± 49 | 459 kPa·kg/mol and 470 kPa·kg/mol | 489 ± 150 | 316 ± 95 | 982 ± 290 | 1840 ± 550 | 3030 ± 910 | 
